Values quoted from earlier work as cited in PMC12181400, “Leveraging viral genome sequences and machine learning models for identification of potentially selective antiviral agents” (Communications Chemistry, 2025).
Where a name gives a salt, the structure may show the parent alone. Read-outs that look alike come from different tables or passages of the source. Peptide text beside a SMILES is read from it.

Columns and labels:
Conditions in all cases: cited from earlier work
[1] = tested on: cell viability (tox21-ap1-agonist-p1)
[2] = tested on: cell viability (tox21-ar-mda-kb2-luc-agonist-p3)
[3] = tested on: cell viability (tox21-ar-mda-kb2-luc-antagonist-p2)
[4] = tested on: cell viability (tox21-are-bla-p1)
[5] = tested on: cell viability (tox21-car-agonist-p1)
[6] = tested on: cell viability (tox21-car-antagonist-p1)
[7] = curve rank −9 to 9, 0 = inactive, ref NCATS Tox21 public data browser

FC(F)(F)c1ccccc1-n1ccnc1 [1-[2-(Trifluoromethyl)phenyl]-1H-imidazole]
0: tox21-ap1-agonist-p1-viability (curve rank) [1, 7] | tox21-ar-mda-kb2-luc-agonist-p3-viability (curve rank) [2, 7] | tox21-ar-mda-kb2-luc-antagonist-p2-viability (curve rank) [3, 7] | tox21-are-bla-p1-viability (curve rank) [4, 7] | tox21-car-agonist-p1-viability (curve rank) [5, 7] | tox21-car-antagonist-p1-viability (curve rank) [6, 7]

CCCCCC(C)N.O=S(=O)(O)O (centres unmarked) [2-Aminoheptane sulfate]
0: tox21-ap1-agonist-p1-viability (curve rank) [1, 7] | tox21-ar-mda-kb2-luc-agonist-p3-viability (curve rank) [2, 7] | tox21-ar-mda-kb2-luc-antagonist-p2-viability (curve rank) [3, 7] | tox21-are-bla-p1-viability (curve rank) [4, 7] | tox21-car-agonist-p1-viability (curve rank) [5, 7] | tox21-car-antagonist-p1-viability (curve rank) [6, 7]

NC(=O)c1ccc([N+](=O)[O-])cc1Cl [2-Chloro-4-nitrobenzamide]
0: tox21-ap1-agonist-p1-viability (curve rank) [1, 7] | tox21-ar-mda-kb2-luc-agonist-p3-viability (curve rank) [2, 7] | tox21-ar-mda-kb2-luc-antagonist-p2-viability (curve rank) [3, 7] | tox21-are-bla-p1-viability (curve rank) [4, 7] | tox21-car-agonist-p1-viability (curve rank) [5, 7] | tox21-car-antagonist-p1-viability (curve rank) [6, 7]

Cc1cccc(C(=O)O)c1O [2-Hydroxy-3-methylbenzoic acid]
0: tox21-ap1-agonist-p1-viability (curve rank) [1] | tox21-ar-mda-kb2-luc-agonist-p3-viability (curve rank) [2] | tox21-ar-mda-kb2-luc-antagonist-p2-viability (curve rank) [3] | tox21-are-bla-p1-viability (curve rank) [4] | tox21-car-agonist-p1-viability (curve rank) [5] | tox21-car-antagonist-p1-viability (curve rank) [6]

Nc1ccc(C(=O)O)cc1 [4-Aminobenzoic acid]
0: tox21-ap1-agonist-p1-viability (curve rank) [1] | tox21-ar-mda-kb2-luc-agonist-p3-viability (curve rank) [2] | tox21-ar-mda-kb2-luc-antagonist-p2-viability (curve rank) [3] | tox21-are-bla-p1-viability (curve rank) [4] | tox21-car-agonist-p1-viability (curve rank) [5] | tox21-car-antagonist-p1-viability (curve rank) [6]

Cc1cc(O)ccc1Cl [4-Chloro-3-methylphenol]
0: tox21-ap1-agonist-p1-viability (curve rank) [1, 7] | tox21-ar-mda-kb2-luc-agonist-p3-viability (curve rank) [2, 7] | tox21-ar-mda-kb2-luc-antagonist-p2-viability (curve rank) [3, 7] | tox21-are-bla-p1-viability (curve rank) [4, 7] | tox21-car-agonist-p1-viability (curve rank) [5, 7] | tox21-car-antagonist-p1-viability (curve rank) [6, 7]

Oc1ccc(Cl)cc1 [4-Chlorophenol]
0: tox21-ap1-agonist-p1-viability (curve rank) [1, 7] | tox21-ar-mda-kb2-luc-agonist-p3-viability (curve rank) [2, 7] | tox21-ar-mda-kb2-luc-antagonist-p2-viability (curve rank) [3, 7] | tox21-are-bla-p1-viability (curve rank) [4, 7] | tox21-car-agonist-p1-viability (curve rank) [5, 7] | tox21-car-antagonist-p1-viability (curve rank) [6, 7]

CCN(CC)CC1CCCCN1CC(=O)N1c2ccccc2C(=O)Nc2cccnc21 (centres unmarked) [AF-DX 116]
0: tox21-ap1-agonist-p1-viability (curve rank) [1] | tox21-ar-mda-kb2-luc-agonist-p3-viability (curve rank) [2] | tox21-ar-mda-kb2-luc-antagonist-p2-viability (curve rank) [3] | tox21-are-bla-p1-viability (curve rank) [4] | tox21-car-agonist-p1-viability (curve rank) [5] | tox21-car-antagonist-p1-viability (curve rank) [6]

CCCC(=O)Nc1ccc(OCC(O)CNC(C)C)c(C(C)=O)c1 (centres unmarked) [Acebutolol hydrochloride]
0: tox21-ap1-agonist-p1-viability (curve rank) [1] | tox21-ar-mda-kb2-luc-agonist-p3-viability (curve rank) [2] | tox21-ar-mda-kb2-luc-antagonist-p2-viability (curve rank) [3] | tox21-are-bla-p1-viability (curve rank) [4] | tox21-car-agonist-p1-viability (curve rank) [5] | tox21-car-antagonist-p1-viability (curve rank) [6]

CC(=O)Nc1ccccc1 [Acetanilide]
0: tox21-ap1-agonist-p1-viability (curve rank) [1] | tox21-ar-mda-kb2-luc-agonist-p3-viability (curve rank) [2] | tox21-ar-mda-kb2-luc-antagonist-p2-viability (curve rank) [3] | tox21-are-bla-p1-viability (curve rank) [4] | tox21-car-agonist-p1-viability (curve rank) [5] | tox21-car-antagonist-p1-viability (curve rank) [6]

CC(=O)Nc1cc([As](=O)(O)O)ccc1O [Acetarsol]
0: tox21-ap1-agonist-p1-viability (curve rank) [1, 7] | tox21-ar-mda-kb2-luc-agonist-p3-viability (curve rank) [2, 7] | tox21-ar-mda-kb2-luc-antagonist-p2-viability (curve rank) [3, 7] | tox21-are-bla-p1-viability (curve rank) [4, 7] | tox21-car-agonist-p1-viability (curve rank) [5, 7] | tox21-car-antagonist-p1-viability (curve rank) [6, 7]

CC(=O)Nc1nnc(S(N)(=O)=O)s1 [Acetazolamide]
0: tox21-ap1-agonist-p1-viability (curve rank) [1] | tox21-ar-mda-kb2-luc-agonist-p3-viability (curve rank) [2] | tox21-ar-mda-kb2-luc-antagonist-p2-viability (curve rank) [3] | tox21-are-bla-p1-viability (curve rank) [4] | tox21-car-agonist-p1-viability (curve rank) [5] | tox21-car-antagonist-p1-viability (curve rank) [6]

CC(=O)N[C@@H](CC(C)C)C(=O)O [Acetyl-L-leucine]
0: tox21-ap1-agonist-p1-viability (curve rank) [1] | tox21-ar-mda-kb2-luc-agonist-p3-viability (curve rank) [2] | tox21-ar-mda-kb2-luc-antagonist-p2-viability (curve rank) [3] | tox21-are-bla-p1-viability (curve rank) [4] | tox21-car-agonist-p1-viability (curve rank) [5] | tox21-car-antagonist-p1-viability (curve rank) [6]

CC(=O)NCCCCCC(=O)O [Acexamic acid]
0: tox21-ap1-agonist-p1-viability (curve rank) [1, 7] | tox21-ar-mda-kb2-luc-agonist-p3-viability (curve rank) [2, 7] | tox21-ar-mda-kb2-luc-antagonist-p2-viability (curve rank) [3, 7] | tox21-are-bla-p1-viability (curve rank) [4, 7] | tox21-car-agonist-p1-viability (curve rank) [5, 7] | tox21-car-antagonist-p1-viability (curve rank) [6, 7]

CCN(CC)CCOC(=O)C(c1ccccc1)c1ccccc1 [Adiphenine hydrochloride]
0: tox21-ap1-agonist-p1-viability (curve rank) [1] | tox21-ar-mda-kb2-luc-agonist-p3-viability (curve rank) [2] | tox21-ar-mda-kb2-luc-antagonist-p2-viability (curve rank) [3] | tox21-are-bla-p1-viability (curve rank) [4] | tox21-car-agonist-p1-viability (curve rank) [5] | tox21-car-antagonist-p1-viability (curve rank) [6]

C=CCNC(N)=S [Allylthiourea]
0: tox21-ap1-agonist-p1-viability (curve rank) [1, 7] | tox21-ar-mda-kb2-luc-agonist-p3-viability (curve rank) [2, 7] | tox21-ar-mda-kb2-luc-antagonist-p2-viability (curve rank) [3, 7] | tox21-are-bla-p1-viability (curve rank) [4, 7] | tox21-car-agonist-p1-viability (curve rank) [5, 7] | tox21-car-antagonist-p1-viability (curve rank) [6, 7]

CCC(C)(CN(C)C)OC(=O)c1ccccc1.Cl (centres unmarked) [Amylocaine hydrochloride]
0: tox21-car-antagonist-p1-viability (curve rank) [6, 7]

Nc1ccccc1C(=O)O [Anthranilic acid]
0: tox21-ap1-agonist-p1-viability (curve rank) [1, 7] | tox21-ar-mda-kb2-luc-agonist-p3-viability (curve rank) [2, 7] | tox21-ar-mda-kb2-luc-antagonist-p2-viability (curve rank) [3, 7] | tox21-are-bla-p1-viability (curve rank) [4, 7] | tox21-car-agonist-p1-viability (curve rank) [5, 7] | tox21-car-antagonist-p1-viability (curve rank) [6, 7]

OC[C@H]1O[C@@H](Oc2ccc(O)cc2)[C@H](O)[C@@H](O)[C@@H]1O [Arbutin]
0: tox21-ap1-agonist-p1-viability (curve rank) [1, 7] | tox21-ar-mda-kb2-luc-agonist-p3-viability (curve rank) [2, 7] | tox21-ar-mda-kb2-luc-antagonist-p2-viability (curve rank) [3, 7] | tox21-are-bla-p1-viability (curve rank) [4, 7] | tox21-car-agonist-p1-viability (curve rank) [5, 7] | tox21-car-antagonist-p1-viability (curve rank) [6, 7]

COC(=O)[C@H](Cc1ccccc1)NC(=O)[C@@H](N)CC(=O)O [Aspartame] (H-Asp-Phe-OMe)
0: tox21-ap1-agonist-p1-viability (curve rank) [1, 7] | tox21-ar-mda-kb2-luc-agonist-p3-viability (curve rank) [2, 7] | tox21-ar-mda-kb2-luc-antagonist-p2-viability (curve rank) [3, 7] | tox21-are-bla-p1-viability (curve rank) [4, 7] | tox21-car-agonist-p1-viability (curve rank) [5, 7] | tox21-car-antagonist-p1-viability (curve rank) [6, 7]

OC(c1ccccc1)(c1ccccc1)C1CCNCC1 [Azacyclonol]
0: tox21-ap1-agonist-p1-viability (curve rank) [1, 7] | tox21-ar-mda-kb2-luc-agonist-p3-viability (curve rank) [2, 7] | tox21-ar-mda-kb2-luc-antagonist-p2-viability (curve rank) [3, 7] | tox21-are-bla-p1-viability (curve rank) [4, 7] | tox21-car-agonist-p1-viability (curve rank) [5, 7] | tox21-car-antagonist-p1-viability (curve rank) [6, 7]

NS(=O)(=O)c1cc2c(cc1C(F)(F)F)NC(Cc1ccccc1)NS2(=O)=O (centres unmarked) [Bendroflumethiazide]
0: tox21-ap1-agonist-p1-viability (curve rank) [1] | tox21-ar-mda-kb2-luc-agonist-p3-viability (curve rank) [2] | tox21-ar-mda-kb2-luc-antagonist-p2-viability (curve rank) [3] | tox21-are-bla-p1-viability (curve rank) [4] | tox21-car-agonist-p1-viability (curve rank) [5] | tox21-car-antagonist-p1-viability (curve rank) [6]

C/C(=C(\CCOP(=O)(O)O)SC(=O)c1ccccc1)N(C=O)Cc1cnc(C)nc1N [Benfotiamine]
0: tox21-ap1-agonist-p1-viability (curve rank) [1] | tox21-ar-mda-kb2-luc-agonist-p3-viability (curve rank) [2] | tox21-ar-mda-kb2-luc-antagonist-p2-viability (curve rank) [3] | tox21-are-bla-p1-viability (curve rank) [4] | tox21-car-agonist-p1-viability (curve rank) [5] | tox21-car-antagonist-p1-viability (curve rank) [6]

CC1(C)S[C@@H]2[C@H](NC(=O)Cc3ccccc3)C(=O)N2[C@H]1C(=O)O.CC1(C)S[C@@H]2[C@H](NC(=O)Cc3ccccc3)C(=O)N2[C@H]1C(=O)O.c1ccc(CNCCNCc2ccccc2)cc1 [Benzathine penicillin G]
0: tox21-ap1-agonist-p1-viability (curve rank) [1, 7] | tox21-ar-mda-kb2-luc-agonist-p3-viability (curve rank) [2, 7] | tox21-ar-mda-kb2-luc-antagonist-p2-viability (curve rank) [3, 7] | tox21-are-bla-p1-viability (curve rank) [4, 7] | tox21-car-agonist-p1-viability (curve rank) [5, 7] | tox21-car-antagonist-p1-viability (curve rank) [6, 7]

NS(=O)(=O)c1cc2c(cc1Cl)N=C(CSCc1ccccc1)NS2(=O)=O [Benzthiazide]
0: tox21-ap1-agonist-p1-viability (curve rank) [1] | tox21-ar-mda-kb2-luc-agonist-p3-viability (curve rank) [2] | tox21-ar-mda-kb2-luc-antagonist-p2-viability (curve rank) [3] | tox21-are-bla-p1-viability (curve rank) [4] | tox21-car-agonist-p1-viability (curve rank) [5] | tox21-car-antagonist-p1-viability (curve rank) [6]

CC(C)NCC(O)COc1ccc(COCCOC(C)C)cc1 (centres unmarked) [Bisoprolol fumarate]
0: tox21-ap1-agonist-p1-viability (curve rank) [1] | tox21-ar-mda-kb2-luc-agonist-p3-viability (curve rank) [2] | tox21-ar-mda-kb2-luc-antagonist-p2-viability (curve rank) [3] | tox21-are-bla-p1-viability (curve rank) [4] | tox21-car-agonist-p1-viability (curve rank) [5] | tox21-car-antagonist-p1-viability (curve rank) [6]

Brc1c(NC2=NCCN2)ccc2nccnc12 [Brimonidine]
0: tox21-ap1-agonist-p1-viability (curve rank) [1] | tox21-ar-mda-kb2-luc-agonist-p3-viability (curve rank) [2] | tox21-ar-mda-kb2-luc-antagonist-p2-viability (curve rank) [3] | tox21-are-bla-p1-viability (curve rank) [4] | tox21-car-agonist-p1-viability (curve rank) [5] | tox21-car-antagonist-p1-viability (curve rank) [6]

CCN[C@H]1CN(CCCOC)S(=O)(=O)c2sc(S(N)(=O)=O)cc21 [Brinzolamide]
0: tox21-ap1-agonist-p1-viability (curve rank) [1] | tox21-ar-mda-kb2-luc-agonist-p3-viability (curve rank) [2] | tox21-ar-mda-kb2-luc-antagonist-p2-viability (curve rank) [3] | tox21-are-bla-p1-viability (curve rank) [4] | tox21-car-agonist-p1-viability (curve rank) [5] | tox21-car-antagonist-p1-viability (curve rank) [6]

CCN(Cc1ccncc1)C(=O)C(CO)c1ccccc1 (centres unmarked) [Tropicamide]
0: tox21-ap1-agonist-p1-viability (curve rank) [1, 7] | tox21-are-bla-p1-viability (curve rank) [4, 7] | tox21-car-agonist-p1-viability (curve rank) [5, 7] | tox21-car-antagonist-p1-viability (curve rank) [6, 7]
